Assay results: paper PMC11255338, “A deterministic, c-di-GMP-dependent program ensures the generation of phenotypically similar, symmetric daughter cells during cytokinesis” (Nature Communications, 2024)

Experiments:
MalE-DmxA^WT [1] = target: T1, MalE-DmxA^WT (Myxococcus xanthus, UniProt Q1D632); experiment: diguanylate cyclase assay, pyrophosphate release (EnzChek); assay type: biochemical; settings: 1 µM protein, 50 µM GTP
T1 construct: gene MXAN_3705; residues 223-722 (two GAF domains + GGDEF; N-terminal transmembrane domain removed), N-terminal MalE (MBP) tag kept, pMAL-c6t, E. coli Rosetta DE3; dimer by SEC
T1 sequence (Q1D632 211-710): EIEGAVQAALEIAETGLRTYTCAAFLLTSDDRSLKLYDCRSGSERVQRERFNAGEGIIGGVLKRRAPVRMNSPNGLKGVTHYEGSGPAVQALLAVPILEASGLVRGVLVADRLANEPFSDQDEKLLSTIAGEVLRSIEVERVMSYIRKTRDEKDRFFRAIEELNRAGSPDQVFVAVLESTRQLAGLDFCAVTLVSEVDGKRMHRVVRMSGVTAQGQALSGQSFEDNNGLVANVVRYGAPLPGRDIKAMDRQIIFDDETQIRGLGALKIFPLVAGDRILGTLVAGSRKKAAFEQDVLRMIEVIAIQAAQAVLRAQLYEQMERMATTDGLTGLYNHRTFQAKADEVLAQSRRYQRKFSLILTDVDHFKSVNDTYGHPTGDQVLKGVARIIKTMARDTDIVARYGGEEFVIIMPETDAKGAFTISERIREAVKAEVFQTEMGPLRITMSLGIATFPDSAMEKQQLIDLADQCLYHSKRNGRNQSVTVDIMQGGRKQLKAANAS

MalE-DmxA^WT [2] = target: T2, MalE-DmxA^WT (Myxococcus xanthus, UniProt Q1D632); experiment: as above; assay type: biochemical; settings: 1 µM protein, 50 µM GTP; I-site mutant
T2 construct: gene MXAN_3705; residues 223-722 (two GAF domains + GGDEF; N-terminal transmembrane domain removed), N-terminal MalE (MBP) tag kept, pMAL-c6t, E. coli Rosetta DE3; dimer by SEC
T2 sequence (Q1D632 entry or part of it R603A): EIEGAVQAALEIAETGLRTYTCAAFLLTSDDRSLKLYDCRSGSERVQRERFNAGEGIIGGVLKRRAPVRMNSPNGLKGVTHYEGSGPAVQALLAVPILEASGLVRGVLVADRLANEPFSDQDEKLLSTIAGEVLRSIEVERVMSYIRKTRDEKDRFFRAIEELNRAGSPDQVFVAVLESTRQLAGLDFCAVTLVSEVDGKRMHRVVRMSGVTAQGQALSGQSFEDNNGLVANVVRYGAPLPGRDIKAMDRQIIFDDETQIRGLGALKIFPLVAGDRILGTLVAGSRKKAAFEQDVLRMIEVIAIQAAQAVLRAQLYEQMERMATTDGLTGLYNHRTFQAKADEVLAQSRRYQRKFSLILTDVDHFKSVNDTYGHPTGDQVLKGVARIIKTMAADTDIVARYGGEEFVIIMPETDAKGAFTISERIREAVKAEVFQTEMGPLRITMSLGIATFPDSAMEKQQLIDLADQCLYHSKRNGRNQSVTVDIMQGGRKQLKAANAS

MalE-DmxA^WT [3] = target: T1, MalE-DmxA^WT; experiment: diguanylate cyclase assay, pyrophosphate release (EnzChek), variable-slope inhibition fit; assay type: biochemical
MalE-DmxA^WT [4] = target: T3, MalE-DmxA^WT (Myxococcus xanthus, UniProt Q1D632, E614A); experiment: bio-layer interferometry, biotinylated c-di-GMP immobilised on streptavidin sensor; assay type: binding; settings: labelled compound (biotinylated c-di-GMP, immobilised); 10 µM protein; active-site mutant
T3 construct: gene MXAN_3705; residues 223-722 (two GAF domains + GGDEF; N-terminal transmembrane domain removed), N-terminal MalE (MBP) tag kept, pMAL-c6t, E. coli Rosetta DE3; dimer by SEC

[5] = target: MalE-DmxA^E626A (DmxA residues 223-722 with the catalytic-site substitution E626A) (Myxococcus xanthus DK1622); experiment: SEC; HiLoad 16/600 Superdex 200 pg; SEC buffer 50 mM Tris-HCl pH 7.2, 250 mM NaCl, 10 mM MgCl2, 5 mM DTT, 5% glycerol; column calibrated with Ribonuclease A, Carbonic Anhydrase, Conalbumin and Ferritin; oligomeric state estimated from the elution volume
[6] = target: MalE-DmxA^GAF×2 (DmxA residues 223-547: only the two GAF domains) (Myxococcus xanthus DK1622); experiment: as above
[7] = target: MalE-DmxA^R615A (DmxA residues 223-722 with the I-site substitution R615A) (Myxococcus xanthus DK1622); experiment: as above
[8] = target: MalE-DmxA^WT (DmxA residues 223-722: two GAF domains and the GGDEF domain) (Myxococcus xanthus DK1622); experiment: as above

T3 sequence (Q1D632 entry or part of it E614A): as the sequence (Q1D632 entry or part of it R603A) above, with A393R, E404A counted along it

Molecule: Nc1nc2c(ncn2[C@@H]2O[C@H](COP(=O)(O)OP(=O)(O)OP(=O)(O)O)[C@@H](O)[C@H]2O)c(=O)[nH]1 [GTP]
- diguanylate cyclase assay, pyrophosphate release (EnzChek) (MalE-DmxA^WT [1]): MalE-DmxA^WT and MalE-DmxA^R615A had DGC activity
- diguanylate cyclase assay, pyrophosphate release (EnzChek) (MalE-DmxA^WT [2]): MalE-DmxA^WT and MalE-DmxA^R615A had DGC activity

Molecule: Nc1nc2c(ncn2[C@@H]2O[C@@H]3COP(=O)(O)O[C@H]4[C@@H](O)[C@H](n5cnc6c(=O)[nH]c(N)nc65)O[C@@H]4COP(=O)(O)O[C@H]3[C@H]2O)c(=O)[nH]1 [c-di-GMP]
- Ki (MalE-DmxA^WT [3]): ~15 µM
- bio-layer interferometry, biotinylated c-di-GMP immobilised on streptavidin sens (MalE-DmxA^WT [4]): MalE-DmxA^WT and MalE-DmxA^E626A bound c-di-GMP

Molecule: MalE-DmxA^E626A (DmxA residues 223-722 with the catalytic-site substitution E626A) (domain or fragment)
- stoichiometry N [5]: 2

Molecule: MalE-DmxA^GAF×2 (DmxA residues 223-547: only the two GAF domains) (domain or fragment)
- stoichiometry N [6]: 2

Molecule: MalE-DmxA^R615A (DmxA residues 223-722 with the I-site substitution R615A) (domain or fragment)
- stoichiometry N [7]: 2

Molecule: MalE-DmxA^WT (DmxA residues 223-722: two GAF domains and the GGDEF domain) (domain or fragment)
- stoichiometry N [8]: 2
